Laboratory results reported in publication PMC9867436, “Drug Repurposing to Inhibit Histamine N-Methyl Transferase” (Molecules, 2023).
Like-named read-outs stand apart in the source and are kept apart here.

Biological target: T1, Histamine N-Methyltransferase (HNMT) (Homo sapiens, UniProt P50135)
T1 construct: Recombinant Human Histamine N-Methyltransferase (rhHNMT, R&D Systems 7637-MT)
Assay: fluorescence assay of histamine methylation by recombinant HNMT (ex […]/em […] nm)
Assay type: biochemical

T1 sequence (P50135 whole entry): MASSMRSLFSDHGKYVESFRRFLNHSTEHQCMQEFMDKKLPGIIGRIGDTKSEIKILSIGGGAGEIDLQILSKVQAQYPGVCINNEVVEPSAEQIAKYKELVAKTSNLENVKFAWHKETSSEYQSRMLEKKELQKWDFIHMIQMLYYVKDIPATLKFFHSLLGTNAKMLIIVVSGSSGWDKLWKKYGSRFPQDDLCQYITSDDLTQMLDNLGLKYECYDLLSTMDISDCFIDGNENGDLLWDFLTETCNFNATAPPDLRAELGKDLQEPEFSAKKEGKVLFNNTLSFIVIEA

Row | Compound | IC50 | IC50 (read-out: IC50)
1 | CN1C[C@H](C(=O)N[C@]2(C)O[C@@]3(O)[C@@H]4CCCN4C(=O)[C@H](Cc4ccccc4)N3C2=O)C[C@@H]2c3cccc4[nH]cc(c34)C[C@H]21 [dihydroergotamine] | 72.9 µM | 
2 | Cc1nc(N)nc(N)c1-c1ccc(Cl)c(Cl)c1 [metoprine, reference compound] |  | 0.0667 µM
3 | N#Cc1ccc2[nH]cc(CCCCN3CCN(c4ccc5oc(C(N)=O)cc5c4)CC3)c2c1 [vilazodone] |  | 45 µM
